In the NIST ThermoML archive (doi:10.1016/j.jct.2018.01.008):
Numbers after ± are expanded uncertainties. Each block holds one compound with its values, some of them ahead of it.

Tests used:
[1] = Molar enthalpy of transition or fusion; details: DSC
[2] = for Normal melting temperature: DTA
[3] = xn = mol fraction of the nth substance listed; details: 298.15 K, 77 kPa, Crystal of unknown type, Transient plane heat source method

SMILES: O=C(O)CCCCCCCCC(=O)O [1,10-decanedioic acid]
Molar enthalpy of transition or fusion ([1]; Crystal): 10.6 ± 1.08 kcal/mol
Normal melting temperature ([2]; Crystal): 131.8 ± 2 °C

SMILES: O=C(O)CCCCCCCCC(=O)O [1,10-decanedioic acid] + CCCCCCCCCCCCCCCCCC(=O)O
thermal conductivity ([3]; x2 = 0.945): 0.1802 ± 0.013 W/m/K

SMILES: CCCCCCCCCCCCCCCCCC(=O)O [octadecanoic acid]
Molar enthalpy of transition or fusion ([1]; Crystal): 13.7 ± 1.39 kcal/mol
Normal melting temperature ([2]; Crystal): 69 ± 2 °C

SMILES: CCCCCCCCCCCCCCCCCC(=O)O [octadecanoic acid] + O=C(O)CCCCC(=O)O
thermal conductivity ([3]; x1 = 0.962): 0.1439 ± 0.011 W/m/K

Other lines, results leading:

Molar enthalpy of transition or fusion ([1]; Crystal): 8.57 ± 0.884 kcal/mol
Normal melting temperature ([2]; Crystal): 150.17 ± 2 °C
SMILES: O=C(O)CCCCC(=O)O [1,6-hexanedioic acid]

Molar enthalpy of transition or fusion ([1]; Crystal 1): 6.94 ± 0.717 kcal/mol
Molar enthalpy of transition or fusion ([1]; Crystal 2): 2.07 ± 0.215 kcal/mol
Normal melting temperature ([2]; Crystal 1): 140.63 ± 2 °C
Triple point temperature ([2]; Crystal 2, DSC): 405.59 ± 2.1 K
SMILES: O=C(O)CCCCCCC(=O)O [1,8-octanedioic acid]

thermal conductivity ([3]; x2 = 0.936): 0.172 ± 0.013 W/m/K
SMILES: O=C(O)CCCCCCC(=O)O [1,8-octanedioic acid] + CCCCCCCCCCCCCCCCCC(=O)O
